Reference: ChEMBL document CHEMBL1136879, “Studies on novel 2-imidazolidinones and tetrahydropyrimidin-2(1H)-ones as potential TACE inhibitors: design, synthesis, molecular modeling, and preliminary biological evaluation” (Bioorg Med Chem, 2009)

Biological target: Disintegrin and metalloproteinase domain-containing protein 17 (Homo sapiens) (UniProt P78536)
Experiment: Inhibition of TACE in human THP1 cell lysate at 0.1 uM/L by spectrofluorimetric ELISA relative to control
Format: cell-free
Conditions: THP-1

Sequence of Disintegrin and metalloproteinase domain-containing protein 17 (Homo sapiens) (P78536 whole entry, the tested form may be a part): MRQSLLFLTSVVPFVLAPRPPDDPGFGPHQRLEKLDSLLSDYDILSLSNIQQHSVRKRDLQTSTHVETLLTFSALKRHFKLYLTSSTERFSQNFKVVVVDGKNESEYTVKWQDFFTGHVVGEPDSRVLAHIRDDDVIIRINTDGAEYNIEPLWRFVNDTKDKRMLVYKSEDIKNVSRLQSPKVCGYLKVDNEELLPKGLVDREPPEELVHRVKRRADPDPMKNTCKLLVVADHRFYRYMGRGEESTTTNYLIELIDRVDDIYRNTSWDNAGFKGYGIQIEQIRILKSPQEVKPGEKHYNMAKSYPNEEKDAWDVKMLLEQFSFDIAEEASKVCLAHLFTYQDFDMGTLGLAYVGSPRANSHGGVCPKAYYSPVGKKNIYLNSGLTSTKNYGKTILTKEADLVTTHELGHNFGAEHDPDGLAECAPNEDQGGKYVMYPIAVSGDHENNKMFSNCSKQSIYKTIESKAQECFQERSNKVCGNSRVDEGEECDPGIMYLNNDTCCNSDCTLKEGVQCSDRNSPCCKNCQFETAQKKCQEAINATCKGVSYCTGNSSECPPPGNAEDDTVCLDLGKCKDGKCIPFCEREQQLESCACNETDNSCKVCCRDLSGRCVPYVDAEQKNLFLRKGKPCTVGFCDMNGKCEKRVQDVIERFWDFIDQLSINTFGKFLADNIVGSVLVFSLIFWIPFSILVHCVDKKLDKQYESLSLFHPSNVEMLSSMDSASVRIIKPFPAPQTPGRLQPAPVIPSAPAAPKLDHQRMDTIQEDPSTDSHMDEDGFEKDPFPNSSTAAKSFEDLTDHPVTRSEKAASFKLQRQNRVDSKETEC

SMILES | inhibition [%]
CC(C(=O)NO)N1CCN(c2ccc(OCc3cccc4ccccc34)cc2)C1=O (centres undefined) | 36
CCc1cc(COc2ccc(N3CCN(C(C)C(=O)NO)C3=O)cc2)c2ccccc2n1 (centres undefined) | 62
CC(C(=O)O)N1CCCN(c2ccc(OCc3ccc(-c4ccccc4)cc3)cc2)C1=O (centres undefined) | 28
CC(C(=O)NO)N1CCCN(c2ccc(OCc3cccc4ccccc34)cc2)C1=O (centres undefined) | 40
CC(C)Cc1cc(COc2ccc(N3CCN(C(C)C(=O)NO)C3=O)cc2)c2ccccc2n1 (centres undefined) | 60
CC(C(=O)NO)N1CCN(c2ccc(OCc3ccccn3)cc2)C1=O (centres undefined) | 50
COc1ccc(CSc2ccc(N3CCN(C(C)C(=O)O)C3=O)cc2)cc1 (centres undefined) | 40
CCc1cc(COc2ccc(N3CCCN(C(C)C(=O)NO)C3=O)cc2)c2ccccc2n1 (centres undefined) | 34
CC(C(=O)O)N1CCCN(c2ccc(OCc3ccccn3)cc2)C1=O (centres undefined) | 35
COc1ccc(COc2ccc(N3CCN(C(C)C(=O)NO)C3=O)cc2)cc1 (centres undefined) | 38
CC(C)Cc1cc(COc2ccc(N3CCN(C(C)C(=O)O)C3=O)cc2)c2ccccc2n1 (centres undefined) | 47
COc1ccc(COc2ccc(N3CCCN(C(C)C(=O)NO)C3=O)cc2)cc1 (centres undefined) | 18
CC(C(=O)NO)N1CCCN(c2ccc(OCc3ccccn3)cc2)C1=O (centres undefined) | 37
CC(C)Cc1cc(COc2ccc(N3CCCN(C(C)C(=O)O)C3=O)cc2)c2ccccc2n1 (centres undefined) | 20
CC(C)C[C@H](CC(=O)NO)C(=O)N[C@@H](C)C(=O)N(c1cccc2ccccc12)[C@@H](C)C(=O)NCCN | 28
CC(C(=O)O)N1CCN(c2ccc(OCc3ccc(-c4ccccc4)cc3)cc2)C1=O (centres undefined) | 30
CC(C(=O)NO)N1CCN(c2cccc(OCc3ccc([N+](=O)[O-])cc3)c2)C1=O (centres undefined) | 40
CC(C(=O)O)N1CCN(c2ccc(OCc3cc(-c4ccccc4)nc4ccccc34)cc2)C1=O (centres undefined) | 30
CC(C(=O)O)N1CCCN(c2ccc(OCc3cc(-c4ccccc4)nc4ccccc34)cc2)C1=O (centres undefined) | 31
CC(C(=O)O)N1CCN(c2ccc(OCc3ccccn3)cc2)C1=O (centres undefined) | 28
COc1ccc(CSc2ccc(N3CCN(C(C)C(=O)NO)C3=O)cc2)cc1 (centres undefined) | 42
CC(C(=O)NO)N1CCN(c2cccc(OCc3ccccc3)c2)C1=O (centres undefined) | 39
CCc1cc(COc2ccc(N3CCN(C(C)C(=O)O)C3=O)cc2)c2ccccc2n1 (centres undefined) | 49
CC(C(=O)NO)N1CCCN(c2ccc(OCc3ccccc3)cc2)C1=O (centres undefined) | 28
